Test results: patent US11530210B2, “Substituted heteroaromatic pyrazolo-pyridines and their use as GLUN2B receptor modulators” (JANSSEN PHARMACEUTICA NV, priority 2019, dated 2022)
Structures can show the parent of a compound that is named as a salt.

Molecular target: T1, human GluN1/GluN2B NMDA receptors (Homo sapiens, UniProt Q13224)
T1 construct: expressed in transfected cells
Experiment: Calcium flux (FLIPR) assay on cloned human NR1/GluN2B ion channels expressed in mammalian cells (standard and HTS variants)
Type: cell-based
Conditions: cells expressing human GluN1/GluN2B, glutamate and glycine co-agonists
Method in brief: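 Tet-On-induced stable cell line loaded with Calcium 5 dye; compounds applied 5 min (agonist check), then glutamate at ~EC40 plus 10 μM glycine for 5 min. Buffer pH 7.4 with 0.5 mM MgCl2 in dye loading (standard) or 1.5 mM (HTS). FLIPR fluorescence normalized to control wells; (+)MK-801 as antagonist control.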

T1 sequence (Q13224 27-1484, other chains not shown): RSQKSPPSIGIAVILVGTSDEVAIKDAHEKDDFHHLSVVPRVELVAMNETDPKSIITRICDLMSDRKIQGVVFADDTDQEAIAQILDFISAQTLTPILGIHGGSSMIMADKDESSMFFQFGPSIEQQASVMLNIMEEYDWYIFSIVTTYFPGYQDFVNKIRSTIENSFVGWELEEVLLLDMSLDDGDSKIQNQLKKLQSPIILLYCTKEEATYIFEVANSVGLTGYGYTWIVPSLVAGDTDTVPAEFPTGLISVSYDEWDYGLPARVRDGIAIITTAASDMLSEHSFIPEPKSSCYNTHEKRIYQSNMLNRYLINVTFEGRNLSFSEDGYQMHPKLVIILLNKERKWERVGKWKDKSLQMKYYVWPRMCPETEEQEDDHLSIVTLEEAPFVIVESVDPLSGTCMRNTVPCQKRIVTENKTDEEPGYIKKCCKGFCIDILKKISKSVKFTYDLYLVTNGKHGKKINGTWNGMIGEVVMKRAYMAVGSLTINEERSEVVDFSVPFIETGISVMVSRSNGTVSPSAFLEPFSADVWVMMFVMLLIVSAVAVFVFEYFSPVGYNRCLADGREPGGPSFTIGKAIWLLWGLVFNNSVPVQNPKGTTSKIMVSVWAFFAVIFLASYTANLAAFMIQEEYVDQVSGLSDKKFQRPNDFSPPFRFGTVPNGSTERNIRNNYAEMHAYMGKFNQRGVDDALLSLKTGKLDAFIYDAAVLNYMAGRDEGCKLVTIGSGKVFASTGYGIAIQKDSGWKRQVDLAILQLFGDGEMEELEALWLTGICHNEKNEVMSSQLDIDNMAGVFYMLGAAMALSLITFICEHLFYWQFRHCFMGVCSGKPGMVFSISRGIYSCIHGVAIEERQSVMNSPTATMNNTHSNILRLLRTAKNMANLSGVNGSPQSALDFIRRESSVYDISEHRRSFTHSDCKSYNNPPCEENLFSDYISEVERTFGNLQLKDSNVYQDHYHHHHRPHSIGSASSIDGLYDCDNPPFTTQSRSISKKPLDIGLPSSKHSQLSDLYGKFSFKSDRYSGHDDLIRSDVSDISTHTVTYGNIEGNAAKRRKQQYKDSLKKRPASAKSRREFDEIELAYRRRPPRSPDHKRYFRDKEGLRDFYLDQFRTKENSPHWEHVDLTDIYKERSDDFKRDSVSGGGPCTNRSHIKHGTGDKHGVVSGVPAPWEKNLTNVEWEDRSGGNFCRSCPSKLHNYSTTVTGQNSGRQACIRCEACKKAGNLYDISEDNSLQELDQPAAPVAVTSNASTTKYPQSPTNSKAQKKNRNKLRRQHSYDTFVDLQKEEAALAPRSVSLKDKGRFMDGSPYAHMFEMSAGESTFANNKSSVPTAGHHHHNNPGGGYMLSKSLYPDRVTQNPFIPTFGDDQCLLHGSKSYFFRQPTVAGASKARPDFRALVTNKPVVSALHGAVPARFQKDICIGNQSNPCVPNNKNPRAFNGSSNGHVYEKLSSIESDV

Which IC50 does the source give for `Cc1nnc(Cn2nc(F)c3ncc(-c4ccc(F)c(C(C)(F)F)c4)cc32)o1` [Example 105, 2-[[6-[3-(1,1-Difluoroethyl)-4-fluoro-phenyl]-3-fluoro-pyrazolo[4,3-b]pyridin-1-yl]methyl]-5-methyl-1,3,4-oxadiazole] here?
Its IC50 is 367 nM.

How did the IC50 turn out when `CC(F)(F)c1cc(-c2cnc3cnn(Cc4cccnc4)c3c2)ccc1F` [Example 216, 6-[3-(1,1-Difluoroethyl)-4-fluoro-phenyl]-1-(3-pyridylmethyl)pyrazolo[4,3-b]pyridine] was run?
The IC50 was 109 nM.

`Fc1ccc(-c2cnc3cnn(Cc4ccccn4)c3c2)cc1F` [Example 186, 6-(3,4-Difluorophenyl)-1-(2-pyridylmethyl)pyrazolo[4,3-b]pyridine trifluoroacetate salt] was tested. Which IC50 did it give?
The IC50 was 2520 nM.

With `FC(F)(F)c1cccc(-c2cnc3cnn(Cc4nnco4)c3c2)c1` [Example 7, 2-[[6-[3-(Trifluoromethyl)phenyl]pyrazolo[4,3-b]pyridin-1-yl]methyl]-1,3,4-oxadiazole] as the molecule, how does the IC50 read?
The IC50 was 748 nM.

`Cc1nccc(Cn2ncc3ncc(-c4ccc(F)c(OC(F)F)c4)cc32)n1` [Example 284, 6-[3-(Difluoromethoxy)-4-fluoro-phenyl]-1-[(2-methylpyrimidin-4-yl)methyl]pyrazolo[4,3-b]pyridine] was tested. Which IC50 did it give?
Its IC50 is 942 nM.

Which IC50 does the source give for `Cc1cccc(-c2cnc3cnn(Cc4cncc(F)c4)c3c2)c1` [Example 146, 1-[(5-Fluoro-3-pyridyl)methyl]-6-(m-tolyl)pyrazolo[4,3-b]pyridine] here?
The IC50 was 9 nM.

For `FC(F)(F)c1cccc(-c2cnc3cnn(Cc4ccncc4)c3c2)c1` [Example 164, 1-(4-Pyridylmethyl)-6-[3-(trifluoromethyl)phenyl]pyrazolo[4,3-b]pyridine hydrochloride salt], which IC50 is on record?
The IC50 was 798 nM.

`CC(F)(F)c1cc(-c2cnc3cnn(Cc4cncc(Cl)c4)c3c2)ccc1F` [Example 221, 1-[(5-Chloro-3-pyridyl)methyl]-6-[3-(1,1-difluoroethyl)-4-fluoro-phenyl]pyrazolo[4,3-b]pyridine] was tested. Which IC50 did it give?
The IC50 was 64 nM.

With `Cc1noc(Cn2ncc3ncc(-c4ccc(F)c(C(F)F)c4)cc32)n1` [Example 95, 5-[[6-[3-(Difluoromethyl)-4-fluoro-phenyl]pyrazolo[4,3-b]pyridin-1-yl]methyl]-3-methyl-1,2,4-oxadiazole] as the molecule, how does the IC50 read?
The IC50 was 40 nM.

How did the IC50 turn out when `FC(F)(F)c1cccc(-c2cnc3cnn(Cc4ncccn4)c3c2)c1` [Example 1, 1-(Pyrimidin-2-ylmethyl)-6-[3-(trifluoromethyl)phenyl]pyrazolo[4,3-b]pyridine] was run?
The IC50 was 800 nM.

Which IC50 does the source give for `COc1cncc(Cn2ncc3ncc(-c4cccc(C(F)(F)F)c4)cc32)c1` [Example 173, 1-[(5-Methoxy-3-pyridyl)methyl]-6-[3-(trifluoromethyl)phenyl]pyrazolo[4,3-b]pyridine] here?
The IC50 was 210 nM.

For `Cc1cnc(Cn2ncc3ncc(-c4cccc(C(F)(F)F)c4)cc32)nc1` [Example 287, 1-[(5-Methylpyrimidin-2-yl)methyl]-6-[3-(trifluoromethyl)phenyl]pyrazolo[4,3-b]pyridine], which IC50 is on record?
Its IC50 is 3240 nM.

For `CCc1nnc(Cn2ncc3ncc(-c4ccc(F)c(C(F)F)c4)cc32)s1` [Example 125, 2-[[6-[3-(Difluoromethyl)-4-fluoro-phenyl]pyrazolo[4,3-b]pyridin-1-yl]methyl]-5-ethyl-1,3,4-thiadiazole], which IC50 is on record?
Its IC50 is 138 nM.

With `Fc1cc(-c2cnc3cnn(Cc4cncc(OC(F)F)c4)c3c2)cc(F)c1F` [Example 253, 1-[[5-(Difluoromethoxy)-3-pyridyl]methyl]-6-(3,4,5-trifluorophenyl)pyrazolo[4,3-b]pyridine] as the molecule, how does the IC50 read?
Its IC50 is 980 nM.

For `Fc1ccc(-c2cnc3cnn(Cc4cn[nH]c4)c3c2)cc1C(F)F` [Example 38, 6-[3-(Difluoromethyl)-4-fluoro-phenyl]-1-(1H-pyrazol-4-ylmethyl)pyrazolo[4,3-b]pyridine], which IC50 is on record?
The IC50 was 226 nM.

With `CC(F)(F)c1cc(-c2cnc3cnn(Cc4cncc(F)c4)c3c2)ccc1F` [Example 218, 6-[3-(1,1-Difluoroethyl)-4-fluoro-phenyl]-1-[(5-fluoro-3-pyridyl)methyl]pyrazolo[4,3-b]pyridine] as the molecule, how does the IC50 read?
The IC50 was 107 nM.

How did the IC50 turn out when `COc1cccc(Cn2ncc3ncc(-c4ccc(F)c(C(F)F)c4)cc32)n1` [Example 205, 6-[3-(Difluoromethyl)-4-fluoro-phenyl]-1-[(6-methoxy-2-pyridyl)methyl]pyrazolo[4,3-b]pyridine] was run?
Its IC50 is 177 nM.

For `Cc1nnc(Cn2ncc3ncc(-c4ccc(C(F)F)s4)cc32)o1` [Example 79, 2-[[6-[5-(Difluoromethyl)-2-thienyl]pyrazolo[4,3-b]pyridin-1-yl]methyl]-5-methyl-1,3,4-oxadiazole], which IC50 is on record?
Its IC50 is 153 nM.

For `FC(F)(F)c1cccc(-c2cnc3cnn(Cc4ccccc4)c3c2)c1` [Example 21, 1-Benzyl-6-[3-(trifluoromethyl)phenyl]pyrazolo[4,3-b]pyridine hydrochloride salt], which IC50 is on record?
Its IC50 is 3280 nM.

Which IC50 does the source give for `FC(F)(F)c1cncc(Cn2ncc3ncc(-c4cccc(C(F)(F)F)c4)cc32)c1` [Example 175, 6-[3-(Trifluoromethyl)phenyl]-1-[[5-(trifluoromethyl)-3-pyridyl]methyl]pyrazolo[4,3-b]pyridine] here?
The IC50 was 2300 nM.

For `CC(=O)Nc1nnc(Cn2ncc3ncc(-c4ccc(F)c(OC(F)F)c4)cc32)s1` [Example 19, N-(5-((6-(3-(Difluoromethoxy)-4-fluorophenyl)-1H-pyrazolo[4,3-b]pyridin-1-yl)methyl)-1,3,4-thiadiazol-2-yl)acetamide], which IC50 is on record?
The IC50 was > 2990 nM.

With `Cc1nccc(Cn2ncc3ncc(-c4cccc(C(F)(F)F)c4)cc32)n1` [Example 283, 1-[(2-Methylpyrimidin-4-yl)methyl]-6-[3-(trifluoromethyl)phenyl]pyrazolo[4,3-b]pyridine] as the molecule, how does the IC50 read?
The IC50 was 3250 nM.

How did the IC50 turn out when `Cc1nnc(Cn2nc(F)c3ncc(-c4ccc(Cl)c(C(F)F)c4)cc32)o1` [Example 107, 2-[[6-[4-Chloro-3-(difluoromethyl)phenyl]-3-fluoro-pyrazolo[4,3-b]pyridin-1-yl]methyl]-5-methyl-1,3,4-oxadiazole] was run?
The IC50 was 347 nM.

How did the IC50 turn out when `N#Cc1cncc(Cn2ncc3ncc(-c4cccc(C(F)(F)F)c4)cc32)c1` [Example 3, 5-[[6-[3-(Trifluoromethyl)phenyl]pyrazolo[4,3-b]pyridin-1-yl]methyl]pyridine-3-carbonitrile] was run?
The IC50 was 483 nM.

`COc1cncc(Cn2ncc3ncc(-c4ccc(F)c(C(C)(F)F)c4)cc32)c1` [Example 220, 6-[3-(1,1-Difluoroethyl)-4-fluoro-phenyl]-1-[(5-methoxy-3-pyridyl)methyl]pyrazolo[4,3-b]pyridine] was tested. Which IC50 did it give?
Its IC50 is 89 nM.

How did the IC50 turn out when `N#Cc1ccc(Cn2ncc3ncc(-c4ccc(F)c(C(F)F)c4)cc32)s1` [Example 34, 5-((6-(3-(Difluoromethyl)-4-fluorophenyl)-1H-pyrazolo[4,3-b]pyridin-1-yl)methyl)thiophene-2-carbonitrile] was run?
Its IC50 is 353 nM.

`Cn1cnc(Cn2ncc3ncc(-c4cccc(C(F)(F)F)c4)cc32)c1` [Example 36, 1-[(1-Methylimidazol-4-yl)methyl]-6-[3-(trifluoromethyl)phenyl]pyrazolo[4,3-b]pyridine] was tested. Which IC50 did it give?
The IC50 was 668 nM.

For `Nc1nnc(Cn2ncc3ncc(-c4ccc(F)c(OC(F)F)c4)cc32)s1` [Example 18, 5-[[6-[3-(Difluoromethoxy)-4-fluoro-phenyl]pyrazolo[4,3-b]pyridin-1-yl]methyl]-1,3,4-thiadiazol-2-amine], which IC50 is on record?
The IC50 was 3550 nM.

`Cc1cnc(Cn2ncc3ncc(-c4ccc(F)c(OC(F)F)c4)cc32)o1` [Example 61, 2-[[6-[3-(Difluoromethoxy)-4-fluoro-phenyl]pyrazolo[4,3-b]pyridin-1-yl]methyl]-5-methyl-oxazole] was tested. Which IC50 did it give?
Its IC50 is 160 nM.

How did the IC50 turn out when `Cc1nnc(Cn2nc(F)c3ncc(-c4ccc(F)c(C)c4)cc32)o1` [Example 90, 2-[[3-Fluoro-6-(4-fluoro-3-methyl-phenyl)pyrazolo[4,3-b]pyridin-1-yl]methyl]-5-methyl-1,3,4-oxadiazole] was run?
Its IC50 is 33 nM.

How did the IC50 turn out when `Cc1nc(Cn2ncc3ncc(-c4ccc(F)c(OC(F)F)c4)cc32)no1` [Example 114, 3-[[6-[3-(Difluoromethoxy)-4-fluoro-phenyl]pyrazolo[4,3-b]pyridin-1-yl]methyl]-5-methyl-1,2,4-oxadiazole] was run?
The IC50 was 279 nM.

For `Cc1cnc(Cn2ncc3ncc(-c4ccc(F)c(OC(F)F)c4)cc32)s1` [Example 69, 2-[[6-[3-(Difluoromethoxy)-4-fluoro-phenyl]pyrazolo[4,3-b]pyridin-1-yl]methyl]-5-methyl-thiazole], which IC50 is on record?
Its IC50 is 104 nM.

How did the IC50 turn out when `FC(F)(F)c1cccc(-c2cnc3cnn(Cc4ncno4)c3c2)c1` [Example 87, 5-[[6-[3-(Trifluoromethyl)phenyl]pyrazolo[4,3-b]pyridin-1-yl]methyl]-1,2,4-oxadiazole] was run?
The IC50 was 383 nM.

For `Cc1cc(Cn2ncc3ncc(-c4cccc(C(F)(F)F)c4)cc32)no1` [Example 47, 5-Methyl-3-[[6-[3-(trifluoromethyl)phenyl]pyrazolo[4,3-b]pyridin-1-yl]methyl]isoxazole], which IC50 is on record?
The IC50 was 148 nM.

`Cc1cccc(-c2cnc3c(F)nn(Cc4cncc(F)c4)c3c2)c1` [Example 147, 3-Fluoro-1-[(5-fluoro-3-pyridyl)methyl]-6-(m-tolyl)pyrazolo[4,3-b]pyridine] was tested. Which IC50 did it give?
Its IC50 is 48 nM.

`Cc1cncc(Cn2ncc3ncc(-c4ccc(F)c(OC(F)F)c4)cc32)c1` [Example 224, 6-[3-(Difluoromethoxy)-4-fluoro-phenyl]-1-[(5-methyl-3-pyridyl)methyl]pyrazolo[4,3-b]pyridine] was tested. Which IC50 did it give?
The IC50 was 56 nM.

Which IC50 does the source give for `N#Cc1cncc(Cn2ncc3ncc(-c4ccc(Cl)s4)cc32)c1` [Example 140, 5-[[6-(5-Chloro-2-thienyl)pyrazolo[4,3-b]pyridin-1-yl]methyl]pyridine-3-carbonitrile] here?
Its IC50 is 170 nM.

For `Cc1ccc(Cn2ncc3ncc(-c4cccc(C(F)(F)F)c4)cc32)cn1` [Example 165, 1-[(6-Methyl-3-pyridyl)methyl]-6-[3-(trifluoromethyl)phenyl]pyrazolo[4,3-b]pyridine], which IC50 is on record?
The IC50 was 2170 nM.

With `Cn1cc(Cn2ncc3ncc(-c4ccc(F)c(OC(F)F)c4)cc32)nn1` [Example 72, 6-[3-(Difluoromethoxy)-4-fluoro-phenyl]-1-[(1-methyltriazol-4-yl)methyl]pyrazolo[4,3-b]pyridine] as the molecule, how does the IC50 read?
The IC50 was 827 nM.
